The values that follow come from patent US20260124132A1, “COMPOSITION AND METHOD FOR INHIBITING COLLAGENASE ACTIVITY” (ACCESS BUSINESS GROUP INTERNATIONAL LLC, priority 2022, published 2026).

“And” between values parts separate entries of the source, which are not always exact repeats. Equal entries are not always repeated.

The assay deals with collagenase derived from Clostridium histolyticum. Description: Inhibition of collagenase (fluorescence assay with fluorogenic peptide substrate). It counts as biochemical. Conditions: for Average % inhibition: average of replicates; for Inhibition Rate of collagenase (%): individual replicate. As to the method: The collagenase inhibitory activity of aqueous and ethanol extracts of Cornus officinalis Sieb. et Zucc., Potentilla glabra Lodd. var. mandshurica (Maxim.) Hand.-Mazz, Amomum kravanh Pierre ex Gagnep, and Bombax ceiba Linnaeus were evaluated. The sample mixture (10 μL), 10 μg/mL of the enzyme (collagenase derived from Clostridium histolyticum) and 50 mM Tricine buffer (pH 7.5), was added to a 96-well microtiter plate. […] After a 10 minute incubation at 37° C., the substrate solution ((7-methoxycoumarin-4-yl)acetyl-L-prolyl-L-leucylglycyl-L-leucyl-[Nβ-(2,4-dinitrophenyl)-L-2,3-diaminopropionyl]-Lalanyl-L-arginine amide) was added to obtain a final concentration of 10 μM, and was allowed to react. The fluorescence values were measured after 0 minutes and 30 minutes incubation at 37° C., at an excitation of 320 nm and an emission of 405 nm, using a fluorescence plate reader (EnSpire, Perkin Elmer, Inc., Japan). EGCG was used as a positive control. The average rates of inhibition can also be appreciated with reference to the Figures.

Turning to `O=C(O[C@@H]1Cc2c(O)cc(O)cc2O[C@@H]1c1cc(O)c(O)c(O)c1)c1cc(O)c(O)c(O)c1` [EGCG, epigallocatechin gallate], the Average % inhibition (concentration 31.25 μg/ml) is on record as 19.10%; the Average % inhibition (concentration 62.5 μg/ml) came out at 29.58%; the Average % inhibition (concentration 125 μg/ml) worked out at 39.38%; the Average % inhibition (concentration 250 μg/ml) turned out to be 54.90%; the Average % inhibition (concentration 500 μg/ml) was found to be 80.36%; the Average % inhibition (concentration 1000 μg/ml) turned out to be 106.38%. The “Inhibition Rate of collagenase (%)” value was 18.13% and 16.96% and 22.22% (concentration 31.25 μg/ml); 31.14% and 27.49% and 30.12% (concentration 62.5 μg/ml); 41.37% and 35.23% and 41.52% (concentration 125 μg/ml); 52.78% and 57.02% (concentration 250 μg/ml); 79.53% and 80.99% and 80.56% (concentration 500 μg/ml); 107.75% and 106.58% and 104.82% (concentration 1000 μg/ml).
